From patent publication US10138255B2, “Piperazine derivatives as HIV protease inhibitors” (Merck Sharp & Dohme Corp., priority 2014, dated 2018)

Tested on: HIV-1 (H9IIIB strain)
Assay: Cell-Based HIV Infection Assay Using a Reporter (MT4-GFP cells)
Details: Human immunodeficiency virus 1, inflection point (IP) of viral growth inhibition; MT4-GFP cells infected with HIV-1 H9IIIB; 50% normal human serum; mean of at least two independent experiments; read-out: Cell Based IP (50% NHS)
How it was run: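 Inflection point from a 4-parameter curve of % viral growth inhibition, normalised to DMSO and triple-drug controls, using the 48 h/24 h ratio of GFP-positive cells (R0). MT4-GFP cells pre-infected 24 h with HIV-1 H9IIIB at low MOI; compounds tested in 50% normal human serum, 0.4% DMSO; mean of ≥2 experiments.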

Point of comparison: `COC(=O)N[C@H](C(=O)Nc1cccc(F)c1CC[C@H]1CN[C@@H]2CCCS(=O)(=O)N1C2)[C@@H](c1ccc(Cl)cc1)[C@H]1CC[C@H](OC)CC1` [Example 187, methyl {(1S,2R)-2-(4-chlorophenyl)-1-[(2-{2-[(6R,9S)-2,2-dioxido-2-thia-1,7-diazabicyclo[4.3.1]dec-9-yl]ethyl}-3-fluorophenyl)carbamoyl]-2-[(1r,4R)-4-methoxycyclohexyl]ethyl}carbamate], EC50 3.2 nM. Against it:
- CS(=O)(=O)N1CCC([C@H](c2ccc(F)cc2)[C@H](N)C(=O)Nc2cccc(F)c2CC[C@H]2CN[C@@H]3CCCS(=O)(=O)N2C3)CC1 [Example 186, (βR)-N-(2-{2-[(6R,9S)-2,2-dioxido-2-thia-1,7-diazabicyclo[4.3.1]dec-9-yl]ethyl}-3-fluorophenyl)-4-fluoro-β-[1-(methylsulfonyl)piperidin-4-yl]-L-phenylalaninamide] — 10-fold higher, 33 nM
- C[C@@H]1CC([C@H](c2ccc(F)cc2)[C@H](N)C(=O)Nc2cc(F)ccc2CC[C@H]2CN[C@@H]3CCCS(=O)(=O)N2C3)C[C@H](C)O1 (stereo partly drawn) [Example 188, (βR)-β-[(2S,2R)-2,6-dimethyltetrahydro-2H-pyran-4-yl]-N-(2-{2-[(6R,9S)-2,2-dioxido-2-thia-1,7-diazabicyclo[4.3.1]dec-9-yl]ethyl}-5-fluorophenyl)-4-fluoro-L-phenylalaninamide] — 7.8-fold higher, 25 nM
- CO[C@H]1CC[C@H]([C@H](c2ccc(F)cc2)[C@H](N)C(=O)N[C@H]2CCCC[C@@H]2CC[C@H]2CN[C@@H]3CCCS(=O)(=O)N2C3)CC1 [Example 189, (βR)-N-[(1S,2R)-2-{2-[(6R,9S)-2,2-dioxido-2-thia-1,7-diazabicyclo[4.3.1]dec-9-yl]ethyl}cyclohexyl]-4-fluoro-β-[(1r,4R)-4-methoxycyclohexyl]-L-phenylalaninamide] — 14-fold higher, 45 nM
- CC1(C)C[C@@H]([C@H](c2ccc(Cl)cc2)[C@H](N)C(=O)Nc2c(F)ccc(F)c2CC[C@H]2CN[C@@H]3CCCS(=O)(=O)N2C3)CCO1 [Example 194, (βR)-4-chloro-β-[(4S)-2,2-dimethyltetrahydro-2H-pyran-4-yl]-N-(2-{2-[(6R,9S)-2,2-dioxido-2-thia-1,7-diazabicyclo[4.3.1]dec-9-yl]ethyl}-3,6-difluorophenyl)-L-phenylalaninamide] — 5.9-fold higher, 19 nM
- N[C@H](C(=O)Nc1cncc(F)c1CC[C@H]1CN[C@@H]2CCCS(=O)(=O)N1C2)[C@@H](c1ccc(F)cc1)C1CCOCC1 [Example 195, (βR)-N-(4-{2-[(6R,9S)-2,2-dioxido-2-thia-1,7-diazabicyclo[4.3.1]dec-9-yl]ethyl}-5-fluoropyridin-3-yl)-4-fluoro-β-(tetrahydro-2H-pyran-4-yl)-L-phenylalaninamide] — 21-fold higher, 67 nM
- C[C@@H]1CC([C@H](c2ccc(Cl)cc2)[C@H](N)C(=O)N[C@H]2CCC[C@@H]2CC[C@H]2CN[C@@H]3CCCS(=O)(=O)N2C3)C[C@H](C)O1 (stereo partly drawn) [Example 196, (βR)-4-chloro-β-[(2R,4s,6S)-2,6-dimethyltetrahydro-2H-pyran-4-yl]-N-[(1S,2R)-2-{2-[(6R,9S)-2,2-dioxido-2-thia-1,7-diazabicyclo[4.3.1]dec-9-yl]ethyl}cyclopentyl]-L-phenylalaninamide] — 38-fold higher, 120 nM
- COC(=O)N[C@H](C(=O)Nc1c(F)ccc(F)c1CC[C@H]1CN[C@@H]2CCCS(=O)(=O)N1C2)[C@@H](c1ccc(Cl)cc1)[C@H]1CCOC(C)(C)C1 [Example 200, methyl {(1S,2R)-2-(4-chlorophenyl)-2-[(4S)-2,2-dimethyltetrahydro-2H-pyran-4-yl]-1-[(2-{2-[(6R,9S)-2,2-dioxido-2-thia-1,7-diazabicyclo[4.3.1]dec-9-yl]ethyl}-3,6-difluorophenyl)carbamoyl]ethyl}carbamate] — 11-fold higher, 35 nM
- COC(=O)N[C@H](C(=O)Nc1cccc(F)c1CC[C@H]1CN[C@@H]2CCCS(=O)(=O)N1C2)[C@@H](c1ccc(F)cc1)[C@H]1CC[C@H](O)CC1 [Example 201, methyl [(1S)-2-[(2-{2-[(6R,9S)-2,2-dioxido-2-thia-1,7-diazabicyclo[4.3.1]dec-9-yl]ethyl}-3-fluorophenyl)amino]-1-{(R)-(4-fluorophenyl)[(1r,4R)-4-hydroxycyclohexyl]methyl}-2-oxoethyl]carbamate] — 69-fold higher, 220 nM
- N[C@H](C(=O)Nc1cccc(F)c1CC[C@H]1CN[C@@H]2CCCS(=O)(=O)N1C2)[C@@H](c1ccc(F)cc1)[C@H]1CC[C@H](O)CC1 [Example 202, (βR)-N-(2-{2-[(6R,9S)-2,2-dioxido-2-thia-1,7-diazabicyclo[4.3.1]dec-9-yl]ethyl}-3-fluorophenyl)-4-fluoro-β-[(1r,4R)-4-hydroxycyclohexyl]-L-phenylalaninamide] — 28-fold higher, 89 nM
- COC(=O)N[C@H](C(=O)Nc1cccc(C(F)(F)F)c1CC[C@H]1CN[C@@H]2CCCS(=O)(=O)N1C2)[C@@H](c1ccc(F)cc1)C1C[C@@H](C)O[C@@H](C)C1 (stereo partly drawn) [Example 203, methyl [(1S,2R)-2-[(2R,6S)-2,6-dimethyltetrahydro-2H-pyran-4-yl]-1-{[2-{2-[(6R,9S)-2,2-dioxido-2-thia-1,7-diazabicyclo[4.3.1]dec-9-yl]ethyl}-3-(trifluoromethyl)phenyl]carbamoyl}-2-(4-fluorophenyl)ethyl]carbamate] — 47-fold higher, 150 nM
- C[C@@H]1CC([C@H](c2ccc(F)cc2)[C@H](N)C(=O)Nc2cccc(C(F)(F)F)c2CC[C@H]2CN[C@@H]3CCCS(=O)(=O)N2C3)C[C@H](C)O1 (stereo partly drawn) [Example 204, (βR)-β-[(2R,6S)-2,6-dimethyltetrahydro-2H-pyran-4-yl]-N-[2-{2-[(6R,9S)-2,2-dioxido-2-thia-1,7-diazabicyclo[4.3.1]dec-9-yl]ethyl}-3-(trifluoromethyl)phenyl]-4-fluoro-L-phenylalaninamide] — 72-fold higher, 230 nM
- CO[C@H]1CC[C@](c2ccc(F)cc2)([C@H](N)C(=O)Nc2cccc(F)c2CC[C@H]2CN[C@@H]3CCCS(=O)(=O)N2C3)CC1 [Example 205, (2S)-2-amino-N-(2-{2-[(6R,9S)-2,2-dioxido-2-thia-1,7-diazabicyclo[4.3.1]dec-9-yl]ethyl}-3-fluorophenyl)-2-[trans-1-(4-fluorophenyl)-4-methoxycyclohexyl]ethanamide] — 41-fold higher, 130 nM
- COC(=O)N[C@H](C(=O)Nc1cccc(F)c1CC[C@H]1CN[C@@H]2CCCS(=O)(=O)N1C2)[C@@H](c1ccc(F)cc1)c1cnc(OC(C)C)nc1 [Example 206, methyl [(1S)-2-[(2-{2-[(6R,9S)-2,2-dioxido-2-thia-1,7-diazabicyclo[4.3.1]dec-9-yl]ethyl}-3-fluorophenyl)amino]-1-{(S)-(4-fluorophenyl)[2-(1-methylethoxy)pyrimidin-5-yl]methyl}-2-oxoethyl]carbamate] — 5-fold higher, 16 nM
- CO[C@H]1CC[C@H]([C@H](c2ccc(Cl)cc2)[C@H](N)C(=O)N[C@H]2CCCC[C@@H]2CC[C@H]2CN[C@@H]3CCCS(=O)(=O)N2C3)CC1 [Example 207, (βR)-4-chloro-N-[(1S,2R)-2-{2-[(6R,9S)-2,2-dioxido-2-thia-1,7-diazabicyclo[4.3.1]dec-9-yl]ethyl}cyclohexyl]-β-[(1r,4R)-4-methoxycyclohexyl]-L-phenylalaninamide] — 12-fold higher, 40 nM
- CC1(OC(=O)N2CCC([C@H](c3ccc(Cl)cc3)[C@H](N)C(=O)N[C@H]3CCC[C@@H]3CC[C@H]3CN[C@@H]4CCCS(=O)(=O)N3C4)CC2)CC1 [Example 208, 1-methylcyclopropyl 4-[(1R,2S)-2-amino-1-(4-chlorophenyl)-3-{[(1S,2R)-2-{2-[(6R,9S)-2,2-dioxido-2-thia-1,7-diazabicyclo[4.3.1]dec-9-yl]ethyl}cyclopentyl]amino}-3-oxopropyl]piperidine-1-carboxylate] — 31-fold higher, 100 nM
- COC(=O)N[C@H](C(=O)Nc1cccc(F)c1CC[C@H]1CN[C@@H]2CCCS(=O)(=O)N1C2)[C@]1(c2ccc(F)cc2)CC[C@@H](OC)CC1 [Example 210, methyl {(1S)-2-[(2-{2-[(6R,9S)-2,2-dioxido-2-thia-1,7-diazabicyclo[4.3.1]dec-9-yl]ethyl}-3-fluorophenyl)amino]-1-[trans-1-(4-fluorophenyl)-4-methoxycyclohexyl]-2-oxoethyl}carbamate] — 5-fold higher, 16 nM
- CCO[C@H]1CC[C@H]([C@H](c2ccc(F)cc2)[C@H](NC(=O)OC)C(=O)Nc2cccc(F)c2CC[C@H]2CN[C@@H]3CCCS(=O)(=O)N2C3)CC1 [Example 211, methyl {(1S)-2-[(2-{2-[(6R,9S)-2,2-dioxido-2-thia-1,7-diazabicyclo[4.3.1]dec-9-yl]ethyl}-3-fluorophenyl)amino]-1-[(R)-[(1r,4R)-4-ethoxycyclohexyl](4-fluorophenyl)methyl]-2-oxoethyl}carbamate] — 2-fold higher, 6.4 nM
- CCO[C@H]1CC[C@H]([C@H](c2ccc(F)cc2)[C@H](N)C(=O)Nc2cccc(F)c2CC[C@H]2CN[C@@H]3CCCS(=O)(=O)N2C3)CC1 [Example 212, (βR)-N-(2-{2-[(6R,9S)-2,2-dioxido-2-thia-1,7-diazabicyclo[4.3.1]dec-9-yl]ethyl}-3-fluorophenyl)-β-[(1r,4R)-4-ethoxycyclohexyl]-4-fluoro-L-phenylalaninamide] — 2.2-fold higher, 7 nM
- N[C@H](C(=O)Nc1cccc(F)c1CC[C@H]1CN[C@@H]2CCCS(=O)(=O)N1C2)[C@@H](c1ccc(F)cc1)C1CCCOC1 (stereo partly drawn) [Example 214, (βR)-N-(2-{2-[(6R,9S)-2,2-dioxido-2-thia-1,7-diazabicyclo[4.3.1]dec-9-yl]ethyl}-3-fluorophenyl)-4-fluoro-β-(tetrahydro-2H-pyran-3-yl)-L-phenylalaninamide] — 5.6-fold higher, 18 nM
- CC1(C)C[C@@H]([C@H](c2ccc(Cl)cc2)[C@H](N)C(=O)Nc2cncc(F)c2CC[C@H]2CN[C@@H]3CCCS(=O)(=O)N2C3)CCO1 [Example 215, (βR)-4-chloro-β-[(4S)-2,2-dimethyltetrahydro-2H-pyran-4-yl]-N-(4-{2-[(6R,9S)-2,2-dioxido-2-thia-1,7-diazabicyclo[4.3.1]dec-9-yl]ethyl}-5-fluoropyridin-3-yl)-L-phenylalaninamide] — 2.5-fold higher, 8 nM
